{"source": "patent US10961231B2", "about": "“NTCP inhibitors” (National Institute of Biological Sciences, Beijing, priority 2018, dated 2021)", "target": "T1, NTCP (Homo sapiens, UniProt Q14973)", "T1 sequence (Q14973 1-349)": "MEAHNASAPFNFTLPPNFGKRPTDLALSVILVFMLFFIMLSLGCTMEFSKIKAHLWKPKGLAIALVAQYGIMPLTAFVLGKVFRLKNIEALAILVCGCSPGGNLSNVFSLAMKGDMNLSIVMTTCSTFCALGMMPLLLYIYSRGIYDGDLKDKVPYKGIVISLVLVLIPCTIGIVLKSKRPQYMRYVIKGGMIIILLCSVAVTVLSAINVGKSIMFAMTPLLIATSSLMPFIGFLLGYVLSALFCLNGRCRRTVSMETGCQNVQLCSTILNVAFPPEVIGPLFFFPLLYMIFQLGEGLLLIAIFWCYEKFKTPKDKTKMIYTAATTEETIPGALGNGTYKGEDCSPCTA", "test": "[3H]-TCA uptake assay (NTCP inhibition)", "type": "cell-based", "summary_of_the_method": "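Read-out is liquid scintillation counting of Triton X-100 lysates after 15 min, 37° C uptake of 1 μM [3H]-taurocholate in Na+ Ringer's buffer (145 mM Na). Beforehand, PTH and HepG2-NTCP cells had 24 h in PMM for NTCP induction and 2 h of compound or DMSO treatment.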", "key": {"[1]": {"settings": "given as a range, assay not given"}, "[2]": {"settings": "IC50, given as a range, marked * (asterisk not explained)"}, "[3]": {"settings": "given as a range, marked * (asterisk not explained)"}}}
{"smiles": "CCC1NC(=O)C(C2OC(Sc3cccc(OCc4ccccc4)c3)CC2C)N(C)C(=O)C(C(C)C)N(C)C(=O)C(CC(C)C)N(C)C(=O)C(CC(C)C)N(C)C(=O)C(C)NC(=O)C(C)NC(=O)C(CC(C)C)N(C)C(=O)C(C(C)C)NC(=O)C(CC(C)C)N(C)C(=O)CN(C)C1=O", "note": "[Compound 12A, [2-((2R,3R)-5-(3-(benzyloxy)phenylthio)-3-methyltetrahydrofuran-2-yl)-2-(methylamino)acetic acid]^1-cyclosporin A]", "values": [{"measurement": "IC50", "setting": "[1]", "value": "1 to 1000", "unit": "nM"}]}
{"smiles": "CCC1NC(=O)C(C2OC(SCc3cc(Cl)cc(Cl)c3)CC2C)N(C)C(=O)C(C(C)C)N(C)C(=O)C(CC(C)C)N(C)C(=O)C(CC(C)C)N(C)C(=O)C(C)NC(=O)C(C)NC(=O)C(CC(C)C)N(C)C(=O)C(C(C)C)NC(=O)C(CC(C)C)N(C)C(=O)CN(C)C1=O", "note": "(stereo not drawn) [Compound 91B-s]", "values": [{"measurement": "IC50", "setting": "[2]", "value": "1000 to 100000", "unit": "nM"}]}
{"smiles": "CCC1NC(=O)C(C2OC(Oc3cccc(OCCN(C)C)c3)CC2C)N(C)C(=O)C(C(C)C)N(C)C(=O)C(CC(C)C)N(C)C(=O)C(CC(C)C)N(C)C(=O)C(C)NC(=O)C(C)NC(=O)C(CC(C)C)N(C)C(=O)C(C(C)C)NC(=O)C(CC(C)C)N(C)C(=O)CN(C)C1=O", "note": "(stereo not drawn) [Compound 14A-o]", "values": [{"measurement": "IC50", "setting": "[2]", "value": "1000 to 100000", "unit": "nM"}]}
{"smiles": "CCC1NC(=O)C(C2OC(Sc3cc(Cl)cc(OC)c3)CC2C)N(C)C(=O)C(C(C)C)N(C)C(=O)C(CC(C)C)N(C)C(=O)C(CC(C)C)N(C)C(=O)C(C)NC(=O)C(C)NC(=O)C(CC(C)C)N(C)C(=O)C(C(C)C)NC(=O)C(CC(C)C)N(C)C(=O)CN(C)C1=O", "note": "[Compound 59A, [2-((2R,3R)-5-(3-chloro-5-methoxyphenylthio)-3-methyltetrahydrofuran-2-yl)-2-(methylamino)acetic acid]^1-cyclosporin A]", "values": [{"measurement": "IC50", "setting": "[1]", "value": "1 to 1000", "unit": "nM"}]}
{"smiles": "CCC1NC(=O)C(C2OC(Sc3cc(Cl)cc(OCC4CCN(C)CC4)c3)CC2C)N(C)C(=O)C(C(C)C)N(C)C(=O)C(CC(C)C)N(C)C(=O)C(CC(C)C)N(C)C(=O)C(C)NC(=O)C(C)NC(=O)C(CC(C)C)N(C)C(=O)C(C(C)C)NC(=O)C(CC(C)C)N(C)C(=O)CN(C)C1=O", "note": "(stereo not drawn) [Compound 71]", "values": [{"measurement": "IC50", "setting": "[3]", "value": "1000 to 100000", "unit": "nM"}]}
{"smiles": "CCC1NC(=O)C(C2OC(Sc3cccc(OCc4ccn(C)c(=O)c4)c3)CC2C)N(C)C(=O)C(C(C)C)N(C)C(=O)C(CC(C)C)N(C)C(=O)C(CC(C)C)N(C)C(=O)C(C)NC(=O)C(C)NC(=O)C(CC(C)C)N(C)C(=O)C(C(C)C)NC(=O)C(CC(C)C)N(C)C(=O)CN(C)C1=O", "note": "[Compound 16A, [2-((2R,3R)-3-methyl-5-(3-((1-methyl-2-oxo-1,2-dihydropyridin-4-yl)methoxy)phenylthio)tetrahydrofuran-2-yl)-2-(methylamino)acetic acid]^1-cyclosporin A]", "values": [{"measurement": "IC50", "setting": "[1]", "value": "1000 to 10000", "unit": "nM"}]}
{"smiles": "CCC1NC(=O)C(C2OC(SCc3ccccc3Cl)CC2C)N(C)C(=O)C(C(C)C)N(C)C(=O)C(CC(C)C)N(C)C(=O)C(CC(C)C)N(C)C(=O)C(C)NC(=O)C(C)NC(=O)C(CC(C)C)N(C)C(=O)C(C(C)C)NC(=O)C(CC(C)C)N(C)C(=O)CN(C)C1=O", "note": "(stereo not drawn) [Compound 84A-s]", "values": [{"measurement": "IC50", "setting": "[2]", "value": "1000 to 100000", "unit": "nM"}]}
{"smiles": "CCC1NC(=O)C(C2OC(Oc3ccc(C)cc3)CC2C)N(C)C(=O)C(C(C)C)N(C)C(=O)C(CC(C)C)N(C)C(=O)C(CC(C)C)N(C)C(=O)C(C)NC(=O)C(C)NC(=O)C(CC(C)C)N(C)C(=O)C(C(C)C)NC(=O)C(CC(C)C)N(C)C(=O)CN(C)C1=O", "note": "(stereo not drawn) [Compound 2A-o]", "values": [{"measurement": "IC50", "setting": "[2]", "value": "1000 to 100000", "unit": "nM"}]}
{"smiles": "CCC1NC(=O)C(C2OC(Sc3ccccc3)CC2C)N(C)C(=O)C(C(C)C)N(C)C(=O)C(CC(C)C)N(C)C(=O)C(CC(C)C)N(C)C(=O)C(C)NC(=O)C(C)NC(=O)C(CC(C)C)N(C)C(=O)C(C(C)C)NC(=O)C(CC(C)C)N(C)C(=O)CN(C)C1=O", "note": "[Compound 1B, [2-((2R,3R)-3-methyl-5-(phenylthio)tetrahydrofuran-2-yl)-2-(methylamino)acetic acid]^1-cyclosporin A]", "values": [{"measurement": "IC50", "setting": "IC50, given as a range, assay not given", "value": "1000 to 100000", "unit": "nM"}]}
{"smiles": "CCC1NC(=O)C(C2OC(Oc3cc(OC)cc(OC)c3)CC2C)N(C)C(=O)C(C(C)C)N(C)C(=O)C(CC(C)C)N(C)C(=O)C(CC(C)C)N(C)C(=O)C(C)NC(=O)C(C)NC(=O)C(CC(C)C)N(C)C(=O)C(C(C)C)NC(=O)C(CC(C)C)N(C)C(=O)CN(C)C1=O", "note": "[Compound 38A-o, [2-((2R,3R)-5-(3,5-dimethoxphenoxy)-3-methyltetrahydrofuran-2-yl)-2-(methylamino)acetic acid]^1-cyclosporin A]", "values": [{"measurement": "IC50", "setting": "[2]", "value": "1000 to 100000", "unit": "nM"}]}
{"smiles": "CCC1NC(=O)C(C2OC(OCc3cccc(Cl)c3OC)CC2C)N(C)C(=O)C(C(C)C)N(C)C(=O)C(CC(C)C)N(C)C(=O)C(CC(C)C)N(C)C(=O)C(C)NC(=O)C(C)NC(=O)C(CC(C)C)N(C)C(=O)C(C(C)C)NC(=O)C(CC(C)C)N(C)C(=O)CN(C)C1=O", "note": "(single isomer, unassigned) [Compound 88A]", "values": [{"measurement": "IC50", "setting": "[1]", "value": "1 to 1000", "unit": "nM"}]}
{"smiles": "CCC1NC(=O)C(C2OC(OCc3ccccc3)CC2C)N(C)C(=O)C(C(C)C)N(C)C(=O)C(CC(C)C)N(C)C(=O)C(CC(C)C)N(C)C(=O)C(C)NC(=O)C(C)NC(=O)C(CC(C)C)N(C)C(=O)C(C(C)C)NC(=O)C(CC(C)C)N(C)C(=O)CN(C)C1=O", "note": "[Compound 74A, [2-((2R,3R)-5-(benzyloxy)-3-methyltetrahydrofuran-2-yl)-2-(methylamino)acetic acid]^1-cyclosporin A]", "values": [{"measurement": "IC50", "setting": "[1]", "value": "1 to 1000", "unit": "nM"}]}
{"smiles": "CCC1NC(=O)C(C2OC(Oc3cc(OCCOC)cc(OCc4cccs4)c3)CC2C)N(C)C(=O)C(C(C)C)N(C)C(=O)C(CC(C)C)N(C)C(=O)C(CC(C)C)N(C)C(=O)C(C)NC(=O)C(C)NC(=O)C(CC(C)C)N(C)C(=O)C(C(C)C)NC(=O)C(CC(C)C)N(C)C(=O)CN(C)C1=O", "note": "(stereo not drawn) [Compound 56-o]", "values": [{"measurement": "IC50", "setting": "[3]", "value": "1000 to 100000", "unit": "nM"}]}
{"smiles": "CCC1NC(=O)C(C2OC(Oc3ccc(CN4CCN(C)CC4)cc3)CC2C)N(C)C(=O)C(C(C)C)N(C)C(=O)C(CC(C)C)N(C)C(=O)C(CC(C)C)N(C)C(=O)C(C)NC(=O)C(C)NC(=O)C(CC(C)C)N(C)C(=O)C(C(C)C)NC(=O)C(CC(C)C)N(C)C(=O)CN(C)C1=O", "note": "(stereo not drawn) [Compound 7A-o]", "values": [{"measurement": "IC50", "setting": "[2]", "value": "1000 to 100000", "unit": "nM"}]}
{"smiles": "CCC1NC(=O)C(C2OC(Oc3cccc(OCc4cccnc4)c3)CC2C)N(C)C(=O)C(C(C)C)N(C)C(=O)C(CC(C)C)N(C)C(=O)C(CC(C)C)N(C)C(=O)C(C)NC(=O)C(C)NC(=O)C(CC(C)C)N(C)C(=O)C(C(C)C)NC(=O)C(CC(C)C)N(C)C(=O)CN(C)C1=O", "note": "(stereo not drawn) [Compound 53A-o]", "values": [{"measurement": "IC50", "setting": "[2]", "value": 10000, "unit": "nM"}]}
{"smiles": "CCC1NC(=O)C(C2OC(Sc3cccc(OCc4cccnc4)c3)CC2C)N(C)C(=O)C(C(C)C)N(C)C(=O)C(CC(C)C)N(C)C(=O)C(CC(C)C)N(C)C(=O)C(C)NC(=O)C(C)NC(=O)C(CC(C)C)N(C)C(=O)C(C(C)C)NC(=O)C(CC(C)C)N(C)C(=O)CN(C)C1=O", "note": "[Compound 53A, [2-((2R,3R)-3-methyl-5-(3-(pyridin-3-ylmethoxy)phenylthio)tetrahydrofuran-2-yl)-2-(methylamino)acetic acid]^1-cyclosporin A]", "values": [{"measurement": "IC50", "setting": "[1]", "value": "1 to 1000", "unit": "nM"}]}
{"smiles": "CCC1NC(=O)C(C2OC(SCc3cccc(S(=O)(=O)OCC(C)C)c3)CC2C)N(C)C(=O)C(C(C)C)N(C)C(=O)C(CC(C)C)N(C)C(=O)C(CC(C)C)N(C)C(=O)C(C)NC(=O)C(C)NC(=O)C(CC(C)C)N(C)C(=O)C(C(C)C)NC(=O)C(CC(C)C)N(C)C(=O)CN(C)C1=O", "note": "(stereo not drawn) [Compound 75A-s]", "values": [{"measurement": "IC50", "setting": "[2]", "value": "1000 to 100000", "unit": "nM"}]}
{"smiles": "CCC1NC(=O)C(C2OC(Sc3cccc(OC(C)c4ccccc4)c3)CC2C)N(C)C(=O)C(C(C)C)N(C)C(=O)C(CC(C)C)N(C)C(=O)C(CC(C)C)N(C)C(=O)C(C)NC(=O)C(C)NC(=O)C(CC(C)C)N(C)C(=O)C(C(C)C)NC(=O)C(CC(C)C)N(C)C(=O)CN(C)C1=O", "note": "[Compound 34A, [2-((2R,3R)-3-methyl-5-(3-(1-phenylethoxy)phenylthio)tetrahydrofuran-2-yl)-2-(methylamino)acetic acid]^1-cyclosporin A]", "values": [{"measurement": "IC50", "setting": "[1]", "value": "1 to 1000", "unit": "nM"}]}
